Reference: PubChem BioAssay AID1311 (NMMLSC, 2008)
Where a SMILES comes first, the peptide text is derived from it. The star is where a group is joined. Cbz = O=C(OCc1ccccc1)*

Tested on: Yeast Sic1MUS-GFP degradation, Cln2 overexpression, flow cytometry
Test: yeast Sic1MUS-GFP turnover with Cln2 overexpressed – flow cytometry, Cln2 overexpression, Sic1MUS mutant, mechanism study for 26S proteasome disassembly project, confirmation (AID 1311)
Conditions: stronger effect = higher value

Row | Compound | percent GFP remaining [%]
1 | CC(=O)N1C(=O)C(=C2C=C(C)OC(C)=C2)c2ccccc21 | 2.25
2 | CC(C)C[C@@H](C=O)NC(=O)[C@H](CC(C)C)NC(=O)[C@H](CC(C)C)NC(=O)OCc1ccccc1 (Cbz-Leu-Leu-Leu-aldehyde) | 4.05
